“Also recorded” adds a separate entry of the source.
Key:
[1] = system: MDA-MB-231 cells; assay: Scratch assay, migration of MDA-MB-231 cells; type: cell-based, human
Method: A. An equal number of MDA-MB-231 TNBC cells were grown to confluence in 6 well plates. The cells were then treated with increasing doses of metformin (0, 1, 5 and 10 mM) and a scratch was made in the cell lawn creating a void. At the times shown the number of cell that migrated into the void were counted. The experiment was repeated twice. B. WT MDA-MB-231 cells and cells stably expressing the C43-4 plasmid were grown as in A. Control cells were left untreated, with other cells treated with the DMSO control, 1 uM DOX or 2.5 uM M2I-1. A void was created in the cell lawn and the number of cells that entered the void were scored as above. This experiment was repeated 4 times. This experiment was also repeated 4 times in an independently generated stable C43-4 cell line with similar results. The error of the mean is shown. C. WT and MDA-MB-231 cells stably expressing the C2-4B peptide plasmid were used for the scratch assay as described above. D. WT and MDA-MB-231 cells stably expressing the C13-3 peptide plasmid were used for the scratch assay as described above. The experiments in C and D were only performed once.
Assays using WT and C43-4 expressing cells have been done 4 times. Assays using C13-3 and C2-4B cells have only been conducted once. Metformin treated cells have been used twice. For scratch assays, a scratch is made down a confluent plate of cells, leaving a void. The number of cells that migrate back into the void over time is determined.

[2] = molecular target: T1, Apc5 (Saccharomyces cerevisiae, UniProt Q08683); assay: Yeast 2-hybrid (Y2H) assay, Apc5 bait; type: binding
T1 construct: expressed in transfected cells; host or cells: yeast Y2H cells
T1 sequence (Q08683 1-685): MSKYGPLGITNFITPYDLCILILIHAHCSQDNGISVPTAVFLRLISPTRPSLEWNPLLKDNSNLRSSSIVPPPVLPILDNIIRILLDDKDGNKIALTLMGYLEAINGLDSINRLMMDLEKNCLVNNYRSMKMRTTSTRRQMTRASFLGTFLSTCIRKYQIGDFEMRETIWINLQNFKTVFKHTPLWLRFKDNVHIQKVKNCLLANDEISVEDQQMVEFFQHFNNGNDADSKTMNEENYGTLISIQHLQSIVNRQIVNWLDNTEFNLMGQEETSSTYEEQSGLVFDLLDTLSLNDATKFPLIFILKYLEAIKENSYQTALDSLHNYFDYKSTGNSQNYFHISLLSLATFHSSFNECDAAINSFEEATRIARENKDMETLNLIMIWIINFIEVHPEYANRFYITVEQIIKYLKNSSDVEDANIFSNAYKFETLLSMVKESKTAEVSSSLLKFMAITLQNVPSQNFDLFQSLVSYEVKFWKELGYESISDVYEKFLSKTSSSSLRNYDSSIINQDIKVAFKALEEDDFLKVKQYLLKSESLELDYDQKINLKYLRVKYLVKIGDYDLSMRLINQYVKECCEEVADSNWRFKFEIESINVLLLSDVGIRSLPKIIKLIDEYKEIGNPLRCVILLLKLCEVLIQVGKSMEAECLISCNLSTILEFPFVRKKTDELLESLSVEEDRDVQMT
Method: (§1) The reverse genetic screen utilized a yeast 2-hybrid (Y2H) protocol that selected for peptides that bound to the APC subunits Apc5 or Apc10 (see FIG. 8 for APC structure), to assess whether peptide-binding might modify APC function. Peptides that bound APC subunits were then assayed for those that suppressed APC mutant defects.
(§2) To identify peptides that bound to either Apc5 or Apc10 proteins using a yeast 2-hybrid (Y2H) screen, random small peptides were cloned into the TrxA scaffold (library provided by R. Geyer; FIG. 9) and expressed from a galactose-inducible Y2H prey vector in cells harboring either the APC5 or APC10 genes cloned into the Y2H bait vectors (APC5/APC10 bait constructs complement APC mutant defects).
(§3) Over 100 peptides that bound either Apc5 or Apc10 were recovered from millions screened. Six peptides that reproducibly interacted with the Apc5 or Apc10 bait construct in Y2H assays were examined further. Vectors expressing these 6 peptides were transformed into WT or APC mutant cells and assessed for ts growth.

[3] = system: apc5 temperature sensitive mutant and/or apc10Δ mutant; assay: Viability of APC mutant yeast (spot dilution); type: cell-based
Excerpt: Suitable APC activators also include APC activators that increase the cell viability of an wild-type and/or an APC mutant cell by at least 10%, at least 20%, at least 30%, at least 40%, at least 50%, at least 60%, at least 70% or at least 80% compared to a cell with wild-type APC function. […] Examples of yeast cells with defective APC function include apc5 and apc10 mutants. An example of an apc5 mutant is the apc5 temperature sensitive mutant described herein. An example of an apc10 mutant is the apc10 deletion mutant described herein. Viability of a yeast mutant can be measured for example, by the spot dilution assays described herein or any other method known in the art.
as §1, §3

[4] = system: APC (substrates Cyclin B, Securin, Cdc20, HURP); assay: APC substrate westerns in MDA-MB-231 cells expressing peptides; type: cell-based, human; details: for levels of the APC substrate HURP: MDA-MB-231 stably transfected, normalized to tubulin; for levels of the APC substrate CDC20: MDA-MB-231 stably expressing peptides
Method: (§4) A. Transient transfection of the C43-4 peptide plasmid into human triple negative MDA-MB-231 breast cancer cells followed by Western blot analysis of lysates against Cyclin B, Securin and Cdc20 showing enhanced protein loss. B. Cells in A were treated with DOX (1 uM) for 48 hrs with cell viability measured using an MTT assay kit. The experiment was done in triplicate with standard error of the means shown.
(§5) A. Stable integration of C43-4 in MDA-MB-231 cells was established by selection of transfected cells on Geneticin for 7 days. Westerns against APC substrates show APC activation. B. Cells in A were treated with DOX (1 uM) for 48 hrs with cell viability measured using an MTT assay kit. Mean and SEM of 3 biological repeats.
(§6) A. TNBC MDA-MB-231 cells stably expressing APC binding peptides activate the APC. Cells were grown to confluence and then used to prepare protein lysates. The lysates were used to measure levels of the APC substrate CDC20, which will be reduced if the APC is activated. Cells stably expressing the pcDNA empty vector were used as a control. B. In a similar experiment, MDA-MB-231 cells stably expressing the APC binding peptides shown, or the empty vector control, were used to measure protein levels of the APC substrate HURP using Westerns. C. Triplicate blots as in B were scanned, normalized to tubulin and plotted. Error of the mean is shown. Significant changes are indicated. D. MDA-MB-231 cells stably expressing the empty pcDNA vector, or the C43-4 and C13-3 APC binding peptides, were treated with 1 μM Doxorubicin for 24 hrs. Cell viability was measured using an MTT viability assay.
The C43-4 peptide sequence was cloned into the human expression vector pcDNA. This construct was transiently, and stably, expressed in human breast cancer cell line MDA-MB-231. […] In 231 cells, which are triple negative, aggressive and somewhat resistant to Doxorubicin, the transiently and stably transfected C43-4 peptide resensitized them to DOX treatment (FIGS. 22B and 23B).
(§7) In FIG. 26B, MDA-MB-231 cells were also stably transfected with the peptides C1-8, C2-4B, C3-1B, and C9-5. Levels of the APC substrate HURP were measured in lysates prepared from these cells. […] The empty vector pcDNA was also stably expressed in 231 cells and used as a control.

[5] = system: MDA-MB-231 cells; assay: DOX sensitivity, MTT viability assay, MDA-MB-231 cells expressing peptides; type: cell-based, human; details: stably transfected, 1 uM Doxorubicin 24 hours
Method: as §4, §5, §6, §7

[6] = molecular target: T2, Apc10 (Saccharomyces cerevisiae, UniProt P53068); assay: Yeast 2-hybrid (Y2H) assay, Apc10 bait; type: binding
T2 construct: expressed in transfected cells; host or cells: yeast Y2H cells
T2 sequence (P53068 1-250): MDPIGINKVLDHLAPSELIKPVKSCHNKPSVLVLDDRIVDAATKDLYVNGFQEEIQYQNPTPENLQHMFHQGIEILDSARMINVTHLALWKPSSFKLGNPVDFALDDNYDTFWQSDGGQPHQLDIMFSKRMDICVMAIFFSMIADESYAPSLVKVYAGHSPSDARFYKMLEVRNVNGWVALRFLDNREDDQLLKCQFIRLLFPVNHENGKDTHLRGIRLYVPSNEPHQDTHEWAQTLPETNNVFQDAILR
Method: as §1
A library of random small peptides were cloned into a Thioredoxin (Trx) scaffold (see FIG. 9 for Trx-peptide structure) and expressed from a galactose-inducible Y2H prey vector in cells expressing the Apc10 bait vector (the modified Apc10 is still part of the complete APC complex). Six peptides that reproducibly interacted with the Apc10 bait construct in Y2H assays were identified (FIG. 1A) and were examined further. Cells will only grow in this assay if the peptide interacts with Apc5 or Apc10.
as §2, §3

[7] = system: APC; assay: Yeast 2-hybrid assay for binding the APC
Method: as §1, §2

[8] = system: apc5^CA temperature sensitive mutant; assay: Forward genetic screen, rescue of apc5^CA ts growth; type: cell-based, yeast; details: restrictive temperature
Excerpt: Using a forward genetic screen to test whether temperature sensitive (ts) APC mutants expressing random small peptides could grow at restrictive temperatures, millions of small peptides were rapidly screened for those that could restore mutant APC phenotypes. Peptides that rescued the apc5^CA ts (temperature sensitive) defect were recovered including peptides Y65 and Y36.
In the forward screens, with galactose-inducible TrxA-based peptide libraries, in cells harboring the apc5^CA ts allele, over 200 peptides (from millions screened) suppressed the ts phenotype. Several recovered plasmids were sequenced.

[9] = molecular target: T3, Cin5 (Saccharomyces cerevisiae, UniProt P40917); assay: Yeast 2-hybrid with Y65 as bait to identify binding partners
T3 construct: expressed in transfected cells; host or cells: yeast Y2H cells
T3 sequence (P40917 1-295): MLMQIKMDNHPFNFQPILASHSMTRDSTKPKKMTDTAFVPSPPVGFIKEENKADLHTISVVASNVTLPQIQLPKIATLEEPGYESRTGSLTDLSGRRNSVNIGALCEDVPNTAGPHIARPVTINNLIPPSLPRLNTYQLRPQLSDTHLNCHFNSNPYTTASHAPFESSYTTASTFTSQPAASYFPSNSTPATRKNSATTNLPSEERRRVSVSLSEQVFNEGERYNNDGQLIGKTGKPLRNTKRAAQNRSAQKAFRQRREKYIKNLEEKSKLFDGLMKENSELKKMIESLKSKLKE
Excerpt: One peptide in particular, Y65, was of interest because it had homology to Elongin C (Elc1; Y65 is 20 amino acids in length, with a 7 residue stretch sharing 86% identity and 100% similarity with Elc1). Elc1 is a ubiquitin-protein ligase (E3) conserved among eukaryotes that is involved in DNA repair (Harreman et al, 2009; Ribar et al, 2007). To identify what the peptides bound in order to modify APC activity, Y65 was cloned into the Y2H bait vector and used to identify binding partners.

| Molecule | binds Apc5 in a yeast 2 hybrid assay [2] | viability of an APC mutant [3] | levels of the APC substrate HURP [4] | binds Apc10 in a yeast 2 hybrid assay [6] | further results |
| --- | --- | --- | --- | --- | --- |
| COc1cccc2c1C(=O)c1c(O)c3c(c(O)c1C2=O)C[C@@](O)(C(=O)CO)C[C@@H]3O[C@H]1C[C@H](N)[C@H](O)[C@H](C)O1 [Doxorubicin, reference compound] |  |  |  |  | metastatic potential / in vitro migration [1]: blocked |
| CECLETETFHPITRHLIVPV [C9-5] | Binds Apc5 | increases the viability of an APC mutant | Only C1-8 did not reduce HURP levels |  |  |
| FCL (FLC) [C1-8] |  |  | did not reduce |  |  |
| GALKEVCICIVESVGGEVFS [C13-3] | Binds Apc5 | increases the viability of an APC mutant |  |  | levels of the APC substrate CDC20 [4]: reduce levels; synergy with Doxorubicin (killing effect) [5]: synergize; metastatic potential / in vitro migration [1]: inhibit the in vitro migration |
| PSYNTIKYHETHGGRHPRRQRKRPI [C3-1] |  | increases the viability of an APC mutant |  | Binds Apc10 | levels of the APC substrate CDC20 [4]: reduce levels |
| PVNGERWAP [C3-1B] |  |  | Only C1-8 did not reduce HURP levels | Binds Apc10 |  |
| RRCLSIRTENLAWEGKFLRV [C50-1] |  | increases the viability of an APC mutant |  | Binds Apc10 |  |
| SKWTWRMCMSWTVDRFAPVPWP [C24-1] | Binds Apc5 | increases the viability of an APC mutant |  |  |  |
| SWLNGSGGVVLWLFSNFCCG [Y36] |  |  |  |  | bind the APC in a yeast 2HY assay [7]: not bind the APC in a yeast; apc5^CA temperature sensitive (ts) growth / viability [8]: increases the viability; also recorded: rescued; also recorded: Rescues apc5^CA temperature |
| VRQKSDKEYERVLGLGLRRL [Y65] |  |  |  |  | bind the APC in a yeast 2HY assay [7]: not bind the APC in a yeast; Interacts with Cin5 in a yeast 2 hybrid assay [9]: One peptide binding partner was isolated, Cin5; apc5^CA temperature sensitive (ts) growth / viability [8]: increases the viability; also recorded: rescued; also recorded: Rescues apc5^CA temperature |
